The structures appear in SMILES notation.

In data set [1] the test system is acute GVHD in BALB/c recipient mice. As to the kind of experiment: acute GVHD model, C57BL/6 (H-2Kb) into BALB/c (H-2Kd) MHC mismatch bone marrow transplantation. The class given is in vivo, mouse. Conditions: for survival: allogeneic recipients, 25 mg/kg i.p., p<0.001. The procedure: FIGS. 1A-1C. Compound No. 36 treatment of acute GVHD model. BALB/c recipient mice on day 0 received 5×10^6 of bone marrow cells and 1×10^6 of purified splenic T cells from allogeneic C57BL/6 donor or syngeneic BALB/c donor following lethal irradiation with 800 rads on day −1. Recipients received intraperitoneal injections of 25 mg/kg of Compound No. 36 or vector starting on day −1, then three times weekly, from day −1 to day 21. Mice were monitored […]. […] Data in *, P<0.05; **, P<0.01. Syn—syngenic; Allo—allogeneic.
To determine whether Compound No. 36 affects established parameters of acute GVHD, a well-established C57BL/6 (H-2Kb) into a BALB/c (H-2Kd) major histocompatibility complex (MHC) mismatch model was used. On day 0, BALB/c recipient mice received 5×10^6 of bone marrow cells and 1×10^6 of purified splenic T cells from allogeneic C57BL/6 donor or syngeneic BALB/c donor following lethal irradiation with 800 centiGray (units of radiation) on day −1. Recipients received intraperitoneal injections of 25 mg/kg every other day of Compound No. 36 or vector from day −1 to day 21. Mice were monitored daily for survival and weekly for GVHD score.

In data set [2] the test system is A20 mouse BALB/c lymphoma cell line in BALB/c recipient mice. As to the kind of experiment: graft-versus tumor (GVT): acute GVHD model challenged with A20 tumor cells. The class given is in vivo. The source says:
FIGS. 2A-2C. Compound No. 36 treatment of acute GVHD model challenged with A20 tumor cells. Using the same method as described in FIGS. 1A-1C, BALB/c recipient mice underwent major histocompatibility complex (MHC) major mismatch allogeneic bone marrow transplantation (BMT) with C57BL/6 donor or with BALB/c donor as syngeneic control. BALB/c recipient mice on day 0 received 5×10^6 of bone marrow cells and 1×10^6 of purified splenic T cells with or without 0.5×10^6 A20 cells inoculum. As indicated here, recipients received intraperitoneal injections of 25 mg/kg of Compound No. 36 or vector starting on day −1, then three time weekly, from day −1 to day 21. Mice were monitored weekly for survival and GVHD score. FIG. 2A indicates body weight changes of animals measured weekly.
Data in *, P<0.05; **, P<0.01. Syn—syngenic; Allo—allogeneic.
As GVHD is tightly linked to the graft-versus tumor (GVT) response, testing was undertaken to determine whether Compound No. 36 treatment reduces the effect of GVT in the same mouse model as for GVHD (Example 1). To that end, a mouse BALB/c lymphoma cell line, A20 (0.5×10^6), thus syngeneic to the recipients, was incorporated to the bone marrow transplantation (BMT) cell inoculum on day 0. Recipients received the same doses of Compound No. 36 or vector from day −1 to day 21 as the above model. Syngeneic recipients of BALB/c to BALB/c were also setup with or without A20 cell inoculum and injected the same doses of Compound No. 36 or vector. Syngeneic recipients challenged with A20 cells got systemic tumor infiltration (lower-limb paralysis, hepatosplenomegaly) and 100% of recipients died within 3 weeks after BMT without Compound No. 36 treatment (FIG. 2A and FIG. 2B).

In data set [3] the test system is small intestinal organoids. The data set is described as follows: small intestinal organoids culture in vitro (GFP-Lgr5 transgenic mouse crypts). Type of data set: cell-based. The procedure: FIGS. 3A-3D display the effect of Compound No. 36 on intestinal organoids culture in vitro. Intestinal organoids were established from culture of small intestinal crypts in GFP-Lgr5 transgene B6 mice. 3-5 passages of organoids were used to test the effect of Compound No. 36 in vitro. After dissociation of organoids, 100 crypts per well mixed with Matrigel-culture medium were plated in 24-well plate. After the Matrigel polymerized, 500 μL of culture medium with different concentrations of Compound No. 36 or vector were added to each well. The growth of the organoids was checked daily. Three days after coculture, organoid numbers and budding numbers were counted under the microscope and were photographed (FIG. 3A). Then, organoids were mechanically disrupted and dissociated into single cells with TrypLE Express. Cells were stained with anti-CD326, annexin V, and 7-AAD to analyze GFP-Lgr5^hi cells apoptosis by flow cytometry (FIGS. 3B-3D).
To further determine whether Compound No. 36 has any direct GVHD organ (e.g., GI tract) toxicity or conversely, a regenerative effects, in the context of BMT, various concentrations of Compound No. 36 was cocultured with established small intestinal organoids, in which the intestine crypts were from the GFP-Leucine-rich repeat-containing G protein-coupled receptor 5 (Lgr5) transgenic mouse strain. Intestinal organoids were established from culture of small intestinal crypts in GFP-Lgr5 transgene B6 mice. 3-5 passages of organoids were used to test the effect of Compound No. 36 in vitro. After dissociation of organoids, 100 crypts per well mixed with Matrigel-culture medium were plated in 24-well plate. After the Matrigel polymerized, 500 μL of culture medium with different concentrations of Compound No. 36 or vector were added to each well. Orgonoid growth was assessed daily. Three days after coculture, organoid numbers and budding numbers were counted under the microscope and were photographed (FIG. 3A). […] Organoids were then mechanically disrupted and dissociated into single cells with TrypLE Express. […]

Take `NC(=O)CC[C@H](NC(=O)[C@@H]1CC[C@@H]2CCN(C(=O)CCCCCC#Cc3cccc4c3CN(C3CCC(=O)NC3=O)C4=O)C[C@H](NC(=O)c3cc4cc(C(F)(F)P(=O)(O)O)ccc4[nH]3)C(=O)N21)C(=O)NC(c1ccccc1)c1ccccc1` (stereo partly drawn) [Compound No. 36, ((2-(((5S,8S,10aR)-8-(((S)-5-amino-1-(benzhydrylamino)-1,5-dioxopentan-2-yl)carbamoyl)-3-(8-(2-(2,6-dioxopiperidin-3-yl)-1-oxoisoindolin-4-yl)oct-7-ynoyl)-6-oxodecahydropyrrolo[1,2-a][1,5]diazocin-5-yl)carbamoyl)-1H-indol-5-yl)difluoromethyl)phosphonic acid]: the “acute GVHD severity (body weight loss and clinical GVHD scores)” value in data set [1] (allogeneic C57BL/6 to BALB/c, 25 mg/kg intraperitoneal every other day, day -1 to day 21, vs. vector) is “significantly reduce acute GVHD severity by reducing body weight loss and clinical GVHD scores”. In addition, the survival came to 100% in data set [1] (day 50, vector 50%) and 53% in data set [1] (day 100, vector 12%). Further, in data set [1] (syngeneic recipients BALB/c to BALB/c, same doses (25 mg/kg i.p.)), the “signs of toxicity or GVHD” value was “did not present any signs of toxicity”. In data set [1] (syngeneic recipients BALB/c to BALB/c, same doses, until the end point), this compound registered a survival rate of 100%. The tumor-related death result in data set [2] (allogeneic GVHD model challenged with A20 cells, by 6 weeks after BMT) is listed as “no tumor-related death was observed”. The same compound registered a mice survival in data set [2] (allogeneic GVHD model challenged with A20 cells, by 6 weeks after BMT, vector 50%, p<0.05) of 100%. Further, the GVHD severity entry in data set [2] (allogeneic GVHD model challenged with A20 cells, by 6 weeks after BMT, vs. vector) is reported as “significantly reduced GVHD severity”. Also, in data set [2] (syngeneic recipients receiving A20 cells (0.5x10^6), 25 mg/kg i.p. day -1 to day 21, vs. no treatment (100% died within 3 weeks)), the survival time entry was “significantly extended the survival time”. Also, in data set [3] (conclusion from the organoid data), the toxicity on intestine result is recorded as “does not have significant toxicity on intestine”. The “organoid numbers and budding numbers” value in data set [3] (three days after coculture, series concentrations) was “No significant changes were observed”. Further, the “Lgr5-GFP+ stem cells and Annexin V expression (apoptosis) by flow cytometry” value in data set [3] (three days after coculture, vs. vector group) was “no differences between vector group and Compound No. 36 treatment group were observed”.

(Values after patent publication US20230133504A1, “METHOD OF TREATING GRAFT-VERSUS-HOST DISEASE” (REGENTS OF THE UNIVERSITY OF MICHIGAN, priority 2021, published 2023).)
